Several values for one entry are separate records, joined by “and”; a condition that tells them apart may be missing. Equal values may be shown once. Read-outs that look alike come from different tables or passages of the source.
Assays:
CR-WT parasites = test: Growth inhibition assay (72 h, LDH activity); format: cell-based, Plasmodium falciparum; details: for EC50: n = 3
Procedure: Parasite growth assays with inhibitory compounds were performed as per[11] and are fully described in the Supplementary Information.
Molecular biology and transfection of P. falciparum: CRISPR method.
The full 5’ homology region of pfstart1 (either WT, N309K or N330K) was amplified from pPfSTART1-HA-2A-Neo-glmS with the same 5’ BglII primer and a new 3’ primer that replaced with PstI with SpeI and introduced a stop codon. The PCR product was then digested with BglII and SpeI and inserted into similarly digested p1.2 parasite vector2. The p1.2 vector had previously been inserted with a homology region amplified from the 3’ end of the pfstart1 gene (3’HB) to form a second homology block for double recombination. The primers used to amplify 3’HB are listed primers listed in […]
60 μg of p1.2-PfSTART1(WT/N309K/N330K) plasmid was linearised with KasI, precipitated in 3 M sodium acetate and ethanol (70% final concentration) overnight at -20°C. The DNA pellet was washed in cold 70% ethanol and resuspended in cytomix 3.
50 μ M of crRNA ( Table S 2) and 50 μM of tracRNA (Integrated DNA Technologies) were allowed to form a duplex (5 min at 95°C), and Cas9 enzyme (Integrated DNA Technologies) was added, and incubated for 20 min at room temperature 4. This crRNA -tracRNA -Cas9 mix was added to each DNA preparation and transfected to 3D7 ring parasites using the Bio -Rad Gene Pulser at 310 V and 950 μF.
Parasites containing the transfected DNA were selected using 2.5 nM WR99210 (Jacobus). Parasites lines were cloned using limiting dilution. Correct integration was tested by PCR (using primer START_5’UTR.F and START_Int.R1 , Table S 2), and sequencing was done using the primers START_3F and START_Int.R2 (Table S 2).
Growth inhibition assays. Synchronised ring-stage parasites (0.3-0.6% parasitemia, 2% haematocrit) were grown for 72 h in a serial-dilution of the compound under […]
(§1) and compound 4. Note that M-833 was first purchased from MolPort (MolPort -002-267-916) then made in-house at WEHI: the differences observed in EC50s across experiments are attributed to the different batches of M -833. For some experiments, 0, 0.25 or 2.5 mM of glucosamine (GlcN) was also added. Experiments were set up in technical duplicates or triplicates. Following a freeze -thaw cycle, lactate dehydrogenase (LDH) activity was assessed as an indicator of parasite growt h 5. 30 μL of parasite culture was incubated for 30 min in the dark with 75 μL Malstat mixture (0.1 M Tris pH 9.0, 20 g/L lactic acid, pH 7.5, 0.2% Triton-X100, 0.5 g/L acetylpyridine adenine dinucleotide (APAD, Sigma), 200 μg/mL nitroblue tetrazolium (NBT; Sigma), 1 μg/mL phenozine ethosulfate (PES; Sigma)). Absorbance was then measured at 650 nm, transformed using the formula below, plotted against the logarithm of the concentrations, and a non-linear regression (log(inhibitor) vs. response, variable slope) was calculated using GraphPad Prism to assess the half-inhibitory […]
(§2) Growth inhibition % = (1 − average(sample)− average(uRBC)) ∗ 100 […]
(§3) The DMSO samples were also used to assess growth of parasite in the presence of 0.25 and 2.5 mM GlcN (normalised by DMSO in 0 mM GlcN). […]

[1] = test system: M-833 resistant parasite populations (PopC, PopD, PopE); test: Growth inhibition of M-833 resistant populations (LDH); format: cell-based, Plasmodium falciparum
Procedure: After three cycles of drug treatment, three parasite populations were identified as less susceptible to the compound and their growth in serially diluted M-833 after 72 h was measured by lactate dehydrogenase (LDH) activity assays. […] The two most resistant populations (PopD and PopE) were further cloned out by limiting dilution. […] To identify the target of M-833, genomic DNA was extracted from the clonal lines of PopD and PopE and subjected to whole genome sequencing using MinION technology and compared to clonal 3D7 parental parasites. This identified 14 non-synonymous single nucleotide polymorphisms (SNP) across nine different genes when compared to the 3D7 parental strain (Supplementary Data 1). The two genes that had SNPs present across all resistant clones were the P. falciparum liver stage antigen 1 gene (PF3D7_1036400) and P. falciparum stAR-related lipid transfer protein (PF3D7_0104200, PFA0210c; pfstart1). The former is not expressed in the blood stage[19]–[21] and comprises a large central repeat region which is problematic for variant calling. […] Collectively, all the identified mutations (N309K, I224F, N330K) were found within the central conserved START domain and predicted to face the lipid-binding pocket (Fig. 1C).
The drug was then removed, and parasites were allowed to recover. Another cycle of drug treatment (3 μM M-833) was then resumed. The resistant lines were cloned out by limiting dilution (diluting the culture into a 96-well plate to achieve an average of ~0.3 parasites per well), prior to growth inhibition assays and genomic DNA (gDNA) extraction (DNeasy Blood and Tissue kit (Qiagen)[18].
Parasite growth assays with inhibitory compounds were performed as per[11] and are fully described in the Supplementary Information. […]
as §1, §2, §3

Structure (SMILES): Cc1cc(Cl)c(S(=O)(=O)N2CCCC2)cc1OCC(=O)NC1CCCCC1 [M-833]
- Growth inhibition assay, NORMALISED (CR-WT parasites; CR-WT, 0 mM GlcN, conc 41.1523 nM): 25.7439 and 21.0208
- Growth inhibition assay, NORMALISED (CR-WT parasites; CR-WT, 0 mM GlcN, conc 123.457 nM): 61.3173 and 56.525
- Growth inhibition assay, NORMALISED (CR-WT parasites; CR-WT, 0 mM GlcN, conc 370.37 nM): 82.8843
- Growth inhibition assay, NORMALISED (CR-WT parasites; CR-WT, 0 mM GlcN, conc 1111.11 nM): 89.7059
- Growth inhibition assay, NORMALISED (CR-WT parasites; CR-WT, 0 mM GlcN, conc 3333.33 nM): 91.3866
- Growth inhibition assay, NORMALISED (CR-WT parasites; CR-WT, 0 mM GlcN, conc 10000 nM): 91.9797
- NORMALISED (growth inhibition, LDH absorbance vs DMSO and uRBC) (CR-WT parasites; CR-WT, 0.25 mM GlcN, M833 dilution point 1 of 10 (starting concentration 10 uM)): 91.6378 and 97.2065 and 92.208
- NORMALISED (growth inhibition, LDH absorbance vs DMSO and uRBC) (CR-WT parasites; CR-WT, 0.25 mM GlcN, M833 dilution point 2 of 10 from 10 uM start): 88.8272 and 91.5474 and 95.4251
- NORMALISED (growth inhibition, LDH absorbance vs DMSO and uRBC) (CR-WT parasites; CR-WT, 0.25 mM GlcN, M833 dilution point 3 of 10 from 10 uM start): 89.2783 and 89.1988 and 95.5364
- NORMALISED (growth inhibition, LDH absorbance vs DMSO and uRBC) (CR-WT parasites; CR-WT, 0.25 mM GlcN, M833 dilution point 4 of 10 from 10 uM start): 88.272 and 87.9755 and 93.8563
- NORMALISED (growth inhibition, LDH absorbance vs DMSO and uRBC) (CR-WT parasites; CR-WT, 0.25 mM GlcN, M833 dilution point 5 of 10 from 10 uM start): 75.3643 and 67.6575 and 81.1437
- NORMALISED (growth inhibition, LDH absorbance vs DMSO and uRBC) (CR-WT parasites; CR-WT, 0.25 mM GlcN, M833 dilution point 6 of 10 from 10 uM start): 45.0382 and 30.6544 and 52.9049
- NORMALISED (growth inhibition, LDH absorbance vs DMSO and uRBC) (CR-WT parasites; CR-WT, 2.5 mM GlcN, M833 dilution point 1 of 10 (starting concentration 10 uM)): 89.8305 and 92.5684 and 90.1213
- NORMALISED (growth inhibition, LDH absorbance vs DMSO and uRBC) (CR-WT parasites; CR-WT, 2.5 mM GlcN, M833 dilution point 2 of 10 from 10 uM start): 86.1896 and 88.6745 and 91.3765
- NORMALISED (growth inhibition, LDH absorbance vs DMSO and uRBC) (CR-WT parasites; CR-WT, 2.5 mM GlcN, M833 dilution point 3 of 10 from 10 uM start): 89.5794 and 86.621 and 91.7037
- NORMALISED (growth inhibition, LDH absorbance vs DMSO and uRBC) (CR-WT parasites; CR-WT, 2.5 mM GlcN, M833 dilution point 4 of 10 from 10 uM start): 86.2524 and 82.3118 and 91.2012
- NORMALISED (growth inhibition, LDH absorbance vs DMSO and uRBC) (CR-WT parasites; CR-WT, 2.5 mM GlcN, M833 dilution point 5 of 10 from 10 uM start): 84.1808 and 81.8139 and 88.9226
- NORMALISED (growth inhibition, LDH absorbance vs DMSO and uRBC) (CR-WT parasites; CR-WT, 2.5 mM GlcN, M833 dilution point 6 of 10 from 10 uM start): 79.5355 and 74.3155 and 81.4326
- NORMALISED (growth inhibition, LDH absorbance vs DMSO and uRBC) (CR-WT parasites; CR-WT, 2.5 mM GlcN, M833 dilution point 7 of 10 from 10 uM start): 64.0929 and 56.4406 and 58.0509
- NORMALISED (growth inhibition, LDH absorbance vs DMSO and uRBC) (CR-WT parasites; CR-WT, 2.5 mM GlcN, M833 dilution point 8 of 10 from 10 uM start): 44.6955 and 44.5084 and 37.5789
- NORMALISED (growth inhibition, LDH absorbance vs DMSO and uRBC) (CR-WT parasites; CR-WT, 2.5 mM GlcN, M833 dilution point 9 of 10 from 10 uM start): 25.0175 and 29.9435 and 28.2047
- NORMALISED (growth inhibition, LDH absorbance vs DMSO and uRBC) (CR-WT parasites; CR-WT, 2.5 mM GlcN, M833 dilution point 10 of 10 from 10 uM start): 14.8750 and 11.4878 and 17.8749
- EC50 (CR-WT parasites; Plasmodium falciparum, 72 h, Fig 2D, CR-WT, 72 h, read-out: EC50 (95% confidence interval)): 51.2 nM
- inhibition at 0.37037 µM (CR-WT parasites; Plasmodium falciparum, CR-WT, 0 mM GlcN, conc 370.37 nM, read-out: Growth inhibition assay, NORMALISED): 88.3%
- inhibition at 1.11111 µM (CR-WT parasites; Plasmodium falciparum, CR-WT, 0 mM GlcN, conc 1111.11 nM, read-out: Growth inhibition assay, NORMALISED): 91.9%
- inhibition at 3.33333 µM (CR-WT parasites; Plasmodium falciparum, CR-WT, 0 mM GlcN, conc 3333.33 nM, read-out: Growth inhibition assay, NORMALISED): 91.6%
- inhibition at 10 µM (CR-WT parasites; Plasmodium falciparum, CR-WT, 0 mM GlcN, conc 10000 nM, read-out: Growth inhibition assay, NORMALISED): 93.5%
- EC50 (CR-WT parasites; Plasmodium falciparum, read-out: EC50 M-833 (95% confidence interval), Fig 3F, CR-WT, 0.25 mM GlcN): 39.6 nM
- EC50 (CR-WT parasites; Plasmodium falciparum, read-out: EC50 M-833 (95% confidence interval), Fig 3F, CR-WT, 2.5 mM GlcN): 6.58 nM
- fold reduction of EC50 on addition of 2.5 mM GlcN (CR-WT parasites; {}): 7.8 fold
- Growth (Abs) Normalised to DMSO ([1]; Population C, M-833 0.0390625 uM): 99.9117
- Growth (Abs) Normalised to DMSO ([1]; Population C, M-833 0.078125 uM): 102.105
- Growth (Abs) Normalised to DMSO ([1]; Population C, M-833 0.15625 uM): 99.9558
- Growth (Abs) Normalised to DMSO ([1]; Population C, M-833 0.3125 uM): 98.7636
- Growth (Abs) Normalised to DMSO ([1]; Population C, M-833 0.625 uM): 92.6626
- Growth (Abs) Normalised to DMSO ([1]; Population C, M-833 1.25 uM): 74.9632
- Growth (Abs) Normalised to DMSO ([1]; Population C, M-833 2.5 uM): 42.7878
- Growth (Abs) Normalised to DMSO ([1]; Population C, M-833 5 uM): 8.5443
- Growth (Abs) Normalised to DMSO ([1]; Population C, M-833 10 uM): 1.435
- Growth (Abs) Normalised to DMSO ([1]; Population D, M-833 0.0390625 uM): 100.282
- Growth (Abs) Normalised to DMSO ([1]; Population D, M-833 0.078125 uM): 101.574
- Growth (Abs) Normalised to DMSO ([1]; Population D, M-833 0.15625 uM): 100.622
- Growth (Abs) Normalised to DMSO ([1]; Population D, M-833 0.3125 uM): 100.758
- Growth (Abs) Normalised to DMSO ([1]; Population D, M-833 0.625 uM): 96.1318
- Growth (Abs) Normalised to DMSO ([1]; Population D, M-833 1.25 uM): 94.9752
- Growth (Abs) Normalised to DMSO ([1]; Population D, M-833 2.5 uM): 84.3814
- Growth (Abs) Normalised to DMSO ([1]; Population D, M-833 5 uM): 63.806
- Growth (Abs) Normalised to DMSO ([1]; Population D, M-833 10 uM): 31.8884
- Growth (Abs) Normalised to DMSO ([1]; Population E, M-833 0.0390625 uM): 101.958
- Growth (Abs) Normalised to DMSO ([1]; Population E, M-833 0.078125 uM): 104.075
- Growth (Abs) Normalised to DMSO ([1]; Population E, M-833 0.15625 uM): 104.451
- Growth (Abs) Normalised to DMSO ([1]; Population E, M-833 0.3125 uM): 103.313
- Growth (Abs) Normalised to DMSO ([1]; Population E, M-833 0.625 uM): 104.846
- Growth (Abs) Normalised to DMSO ([1]; Population E, M-833 1.25 uM): 106.755
- Growth (Abs) Normalised to DMSO ([1]; Population E, M-833 2.5 uM): 98.4077
- Growth (Abs) Normalised to DMSO ([1]; Population E, M-833 5 uM): 90.3966
- Growth (Abs) Normalised to DMSO ([1]; Population E, M-833 10 uM): 68.0744
- increase in EC50 compared to 3D7 parasites ([1]; cloned PopD and PopE lines, Fig 1B): 17 fold
